Data reported in ChEMBL document CHEMBL2046329, “Furin inhibitors: importance of the positive formal charge and beyond” (Bioorg Med Chem, 2012).
Residues, ends and D or L forms follow the SMILES beside them.

Biological target: Furin (Homo sapiens, UniProt P09958)
Test: Inhibition of furin

Furin, sequence (P09958 whole entry): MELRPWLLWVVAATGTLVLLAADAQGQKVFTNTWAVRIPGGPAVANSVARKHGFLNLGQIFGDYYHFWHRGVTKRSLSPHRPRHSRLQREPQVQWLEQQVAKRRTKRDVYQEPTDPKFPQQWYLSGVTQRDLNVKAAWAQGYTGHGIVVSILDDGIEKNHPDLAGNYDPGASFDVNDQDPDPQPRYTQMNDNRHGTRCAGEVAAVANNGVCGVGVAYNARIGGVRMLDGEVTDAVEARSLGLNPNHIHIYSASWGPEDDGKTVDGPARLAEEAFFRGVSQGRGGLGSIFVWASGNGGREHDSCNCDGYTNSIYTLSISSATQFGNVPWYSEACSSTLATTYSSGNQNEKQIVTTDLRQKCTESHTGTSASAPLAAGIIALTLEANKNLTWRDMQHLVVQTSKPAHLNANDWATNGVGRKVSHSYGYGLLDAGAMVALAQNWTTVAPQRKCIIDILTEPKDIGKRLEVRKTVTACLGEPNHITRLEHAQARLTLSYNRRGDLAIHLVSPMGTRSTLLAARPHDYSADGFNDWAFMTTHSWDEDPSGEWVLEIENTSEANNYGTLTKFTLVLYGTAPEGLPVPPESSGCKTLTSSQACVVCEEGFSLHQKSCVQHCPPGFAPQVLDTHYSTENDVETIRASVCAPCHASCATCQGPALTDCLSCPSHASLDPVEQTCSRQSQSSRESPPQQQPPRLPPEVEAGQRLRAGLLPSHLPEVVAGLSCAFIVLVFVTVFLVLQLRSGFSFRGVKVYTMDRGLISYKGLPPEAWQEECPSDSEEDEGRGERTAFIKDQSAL

In order of falling Ki:
1. CC(C)[C@H](NC(=O)[C@H](CCCNC(=N)N)NCC(=O)Oc1ccccc1)C(=O)N[C@@H](CCCNC(=N)N)C(=O)NC1CCNCC1  9710 nM
2. CC(C)[C@H](NC(=O)[C@H](CCCNC(=N)N)NCC(=O)Oc1ccccc1)C(=O)N[C@@H](CCCNC(=N)N)C(=O)NCCCCN  7490 nM
3. N=C(N)NCCC[C@H](NC(=O)[C@H](CCCNC(=N)N)NC(=O)[C@H](CCCNC(=N)N)NC(=O)[C@@H](N)CCCNC(=N)N)C(=O)O (H-RRRR-OH)  6400 nM
4. CC(=O)N[C@@H](CC(C)C)C(=O)N[C@@H](CC(C)C)C(=O)N[C@@H](CCCN=C(N)N)C(=O)N[C@H](C(=O)N[C@@H](CCCCN)C(=O)N[C@@H](CCCN=C(N)N)C(=O)O)C(C)C  3500 nM
5. CC(=O)N[C@@H](CC(C)C)C(=O)N[C@@H](Cc1ccc(O)cc1)C(=O)N[C@@H](CCCN=C(N)N)C(=O)N[C@H](C(=O)N[C@@H](CCCCN)C(=O)N[C@@H](CCCN=C(N)N)C(N)=O)C(C)C (Ac-LYRVKR-NH2)  3400 nM
6. CC(C)[C@H](NC(=O)[C@H](CCCN=C(N)N)NCC(=O)Oc1ccccc1)C(=O)N[C@@H](CCCN=C(N)N)C(=O)NCCCN  3020 nM
7. CC(C)[C@H](NC(=O)[C@H](CCCN=C(N)N)NCC(=O)Oc1ccccc1)C(=O)N[C@@H](CCCN=C(N)N)C(=O)Nc1cccc(CN=C(N)N)c1  2730 nM
8. CSCC[C@H](NC(=O)[C@H](CC(C)C)NC(C)=O)C(=O)N[C@@H](CCCNC(=N)N)C(=O)N[C@H](C(=O)N[C@@H](CCCCN)C(=O)N[C@@H](CCCNC(=N)N)C(N)=O)C(C)C (Ac-LMRVKR-NH2)  1900 nM
9. CC(C)[C@H](NC(=O)[C@H](CCCNC(=N)N)NCC(=O)Oc1ccccc1)C(=O)N[C@@H](CCCNC(=N)N)C(=O)Nc1ccc(CNC(=N)N)cc1  1430 nM
10. CC(=O)N[C@@H](CC(C)C)C(=O)N[C@@H](CC(C)C)C(=O)N[C@@H](CCCN=C(N)N)C(=O)N[C@H](C(=O)N[C@@H](CCCCN)C(=O)N[C@@H](CCCN=C(N)N)C(N)=O)C(C)C  1400 nM
11. CC(C)[C@H](NC(=O)[C@H](CCCN=C(N)N)NCC(=O)Oc1ccccc1)C(=O)N[C@@H](CCCN=C(N)N)C(=O)Nc1cccc(CN)c1  1320 nM
12. CC(C)[C@H](NC(=O)[C@H](CCCN=C(N)N)NCC(=O)Oc1ccccc1)C(=O)N[C@@H](CCCN=C(N)N)C(=O)NCCCCCN=C(N)N  1070 nM
13. N=C(N)NCCC[C@H](NC(=O)[C@H](CCCNC(=N)N)NC(=O)[C@H](CCCNC(=N)N)NC(=O)[C@H](CCCNC(=N)N)NC(=O)[C@@H](N)CCCNC(=N)N)C(=O)O (H-RRRRR-OH)  990 nM
14. CC(C)C[C@H](NC(=O)[C@@H](N)CC(C)C)C(=O)N[C@@H](CCCNC(=N)N)C(=O)N[C@H](C(=O)N[C@@H](CCCCN)C(=O)N[C@@H](CCCNC(=N)N)C(N)=O)C(C)C  800 nM
15. CCc1ccc(NC(=O)[C@H](CCCNC(=N)N)NC(=O)[C@@H](NC(=O)[C@H](CCCNC(=N)N)NCC(=O)Oc2ccccc2)C(C)C)cc1  627 nM
16. CC(C)[C@H](NC(=O)[C@H](CCCNC(=N)N)NCC(=O)Oc1ccccc1)C(=O)N[C@@H](CCCNC(=N)N)C(=O)NCCCCCN  553 nM
17. CC(C)C[C@H](NC(=O)[C@@H](N)CC(C)C)C(=O)N[C@@H](CCCNC(=N)N)C(=O)N[C@H](C(=O)N[C@@H](CCCCN)C(=O)N[C@@H](CCCNC(=N)N)C(=O)O)C(C)C  420 nM
18. CC(=O)N[C@@H](CC(C)C)C(=O)N[C@@H](CCCCN)C(=O)N[C@@H](CCCN=C(N)N)C(=O)N[C@H](C(=O)N[C@@H](CCCCN)C(=O)N[C@@H](CCCN=C(N)N)C(N)=O)C(C)C (Ac-LKRVKR-NH2)  190 nM
19. NC(N)=NCCC[C@H](NC(=O)[C@H](CCCN=C(N)N)NC(=O)[C@H](CCCN=C(N)N)NC(=O)[C@H](CCCN=C(N)N)NC(=O)[C@H](CCCN=C(N)N)NC(=O)[C@@H](N)CCCN=C(N)N)C(=O)O  114 nM
20. CC(C)[C@H](NC(=O)[C@H](CCCNC(=N)N)NCC(=O)Oc1ccccc1)C(=O)N[C@@H](CCCNC(=N)N)C(=O)NCCCCNC(=N)N  78 nM
21. CC(C)[C@H](NC(=O)[C@H](CCCNC(=N)N)NCC(=O)Oc1ccccc1)C(=O)N[C@@H](CCCNC(=N)N)C(=O)NCCCNC(=N)N  63 nM
22. CC(C)[C@H](NC(=O)[C@H](CCCN=C(N)N)NCC(=O)Oc1ccccc1)C(=O)N[C@@H](CCCN=C(N)N)C(=O)NC1CCN(C(=N)N)CC1  53 nM
23. CCCCCCCCCC(=O)N[C@@H](CCCN=C(N)N)C(=O)N[C@H](C(=O)N[C@@H](CCCCN)C(=O)Nc1ccc(C(=N)N)cc1)C(C)C  3.3 nM
24. CCCCCCCCCC(=O)N[C@@H](CCCN=C(N)N)C(=O)N[C@H](C(=O)N[C@@H](CCCN=C(N)N)C(=O)Nc1ccc(C(=N)N)cc1)C(C)C  1.6 nM
25. CC(=O)N[C@@H](CCCNC(=N)N)C(=O)N[C@H](C(=O)N[C@@H](CCCNC(=N)N)C(=O)Nc1ccc(C(=N)N)cc1)C(C)C  1 nM
